Laboratory results: patent US10806785B2, “Immunomodulator compounds and methods of use” (Incyte Corporation, priority 2016, dated 2020)

Biological target: PD-1/PD-L1 (Homo sapiens (Human), UniProt Q9NZQ7)
Assay: PD-1/PD-L1 binding assay (HTRF)
Outline: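 HTRF read-out (665/620 nm) after 60 min at 25 °C with 1 nM Eu anti-human IgG and 20 nM APC anti-His. Beforehand, inhibitors were preincubated 40 min with Fc-PD-1 (25-167, […] as listed) and His-PD-L1 (19-238, 10 nM) in PBS pH 7.4 with Tween-20, BSA, 1% DMSO; IC50 from log-concentration curve.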

PD-1/PD-L1, sequence (Q9NZQ7 19-238): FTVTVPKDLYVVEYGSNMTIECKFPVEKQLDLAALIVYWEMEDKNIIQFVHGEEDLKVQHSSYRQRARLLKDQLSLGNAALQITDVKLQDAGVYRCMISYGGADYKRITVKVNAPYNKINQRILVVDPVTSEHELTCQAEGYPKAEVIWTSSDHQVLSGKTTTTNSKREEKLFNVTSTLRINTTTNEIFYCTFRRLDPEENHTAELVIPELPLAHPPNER

Row | SMILES | IC50 [nM]
1 | C[C@@H](O)CN1CCc2c(nc(C(=O)Nc3cccc(-c4cccc(NC(=O)c5nc6c(n5C)CCN(C[C@H]5CC[C@H](C(=O)O)CC5)C6)c4Cl)c3Cl)n2C)C1 [Example 67, trans-4-((2-((2,2′-dichloro-3′-(5-((R)-2-hydroxypropyl)-1-methyl-4,5,6,7-tetrahydro-1H-imidazo[4,5-c]pyridine-2-carboxamido)-[1,1′-biphenyl]-3-yl)carbamoyl)-1-methyl-1,4,6,7-tetrahydro-5H-imidazo[4,5-c]pyridin-5-yl)methyl)cyclohexane-1-carboxylic acid] | ≤ 10
2 | Cn1c(C(=O)Nc2cccc(-c3cccc(NC(=O)c4nc5c(n4C)CCN(C[C@H]4CC[C@@H](C(=O)O)CC4)C5)c3Cl)c2Cl)nc2c1CCNC2 [Example 68, cis-4-((2-((2,2′-dichloro-3′-(1-methyl-4,5,6,7-tetrahydro-1H-imidazo[4,5-c]pyridine-2-carboxamido)-[1,1′-biphenyl]-3-yl)carbamoyl)-1-methyl-1,4,6,7-tetrahydro-5H-imidazo[4,5-c]pyridin-5-yl)methyl)cyclohexane-1-carboxylic acid] | ≤ 10
3 | CN1CCc2c(nc(C(=O)Nc3cccc(-c4cccc(NC(=O)c5nc6c(n5C)CCN(C[C@H]5CC[C@@H](C(=O)O)CC5)C6)c4Cl)c3Cl)n2C)C1 [Example 69, cis-4-((2-((2,2′-dichloro-3′-(1,5-dimethyl-4,5,6,7-tetrahydro-1H-imidazo[4,5-c]pyridine-2-carboxamido)-[1,1′-biphenyl]-3-yl)carbamoyl)-1-methyl-1,4,6,7-tetrahydro-5H-imidazo[4,5-c]pyridin-5-yl)methyl)cyclohexane-1-carboxylic acid] | ≤ 10
4 | CCN1CCc2c(nc(C(=O)Nc3cccc(-c4cccc(NC(=O)c5nc6c(n5C)CCN(C[C@H]5CC[C@@H](C(=O)O)CC5)C6)c4Cl)c3Cl)n2C)C1 [Example 70, cis-4-((2-((2,2′-dichloro-3′-(5-ethyl-1-methyl-4,5,6,7-tetrahydro-1H-imidazo[4,5-c]pyridine-2-carboxamido)-[1,1′-biphenyl]-3-yl)carbamoyl)-1-methyl-1,4,6,7-tetrahydro-5H-imidazo[4,5-c]pyridin-5-yl)methyl)cyclohexane-1-carboxylic acid] | ≤ 10
5 | Cn1c(C(=O)Nc2cccc(-c3cccc(NC(=O)c4nc5c(n4C)CCN(C[C@H]4CC[C@@H](C(=O)O)CC4)C5)c3Cl)c2Cl)nc2c1CCN(CC1CC1)C2 [Example 71, cis-4-((2-((2,2′-dichloro-3′-(5-(cyclopropylmethyl)-1-methyl-4,5,6,7-tetrahydro-1H-imidazo[4,5-c]pyridine-2-carboxamido)-[1,1′-biphenyl]-3-yl)carbamoyl)-1-methyl-1,4,6,7-tetrahydro-5H-imidazo[4,5-c]pyridin-5-yl)methyl)cyclohexane-1-carboxylic acid] | ≤ 10
6 | CC(C)N1CCc2c(nc(C(=O)Nc3cccc(-c4cccc(NC(=O)c5nc6c(n5C)CCN(C[C@H]5CC[C@@H](C(=O)O)CC5)C6)c4Cl)c3Cl)n2C)C1 [Example 72, cis-4-((2-((2,2′-dichloro-3′-(5-isopropyl-1-methyl-4,5,6,7-tetrahydro-1H-imidazo[4,5-c]pyridine-2-carboxamido)-[1,1′-biphenyl]-3-yl)carbamoyl)-1-methyl-1,4,6,7-tetrahydro-5H-imidazo[4,5-c]pyridin-5-yl)methyl)cyclohexane-1-carboxylic acid] | ≤ 10
7 | Cn1c(C(=O)Nc2cccc(-c3cccc(NC(=O)c4nc5c(n4C)CCN(C4CCOCC4)C5)c3Cl)c2Cl)nc2c1CCN(C[C@H]1CC[C@@H](C(=O)O)CC1)C2 [Example 73, cis-4-((2-((2,2′-dichloro-3′-(1-methyl-5-(tetrahydro-2H-pyran-4-yl)-4,5,6,7-tetrahydro-1H-imidazo[4,5-c]pyridine-2-carboxamido)-[1,1′-biphenyl]-3-yl)carbamoyl)-1-methyl-1,4,6,7-tetrahydro-5H-imidazo[4,5-c]pyridin-5-yl)methyl)cyclohexane-1-carboxylic acid] | ≤ 10
8 | Cn1c(C(=O)Nc2cccc(-c3cccc(NC(=O)c4nc5c(n4C)CCN(C[C@H]4CC[C@@H](C(=O)O)CC4)C5)c3Cl)c2Cl)nc2c1CCN(CCO)C2 [Example 74, cis-4-((2-((2,2′-dichloro-3′-(5-(2-hydroxyethyl)-1-methyl-4,5,6,7-tetrahydro-1H-imidazo[4,5-c]pyridine-2-carboxamido)-[1,1′-biphenyl]-3-yl)carbamoyl)-1-methyl-1,4,6,7-tetrahydro-5H-imidazo[4,5-c]pyridin-5-yl)methyl)cyclohexane-1-carboxylic acid] | ≤ 10
9 | C[C@H](O)CN1CCc2c(nc(C(=O)Nc3cccc(-c4cccc(NC(=O)c5nc6c(n5C)CCN(C[C@H]5CC[C@@H](C(=O)O)CC5)C6)c4Cl)c3Cl)n2C)C1 [Example 75, cis-4-((2-((2,2′-dichloro-3′-(5-((S)-2-hydroxypropyl)-1-methyl-4,5,6,7-tetrahydro-1H-imidazo[4,5-c]pyridine-2-carboxamido)-[1,1′-biphenyl]-3-yl)carbamoyl)-1-methyl-1,4,6,7-tetrahydro-5H-imidazo[4,5-c]pyridin-5-yl)methyl)cyclohexane-1-carboxylic acid] | ≤ 10
10 | C[C@@H](O)CN1CCc2c(nc(C(=O)Nc3cccc(-c4cccc(NC(=O)c5nc6c(n5C)CCN(C[C@H]5CC[C@@H](C(=O)O)CC5)C6)c4Cl)c3Cl)n2C)C1 [Example 76, cis-4-((2-((2,2′-dichloro-3′-(5-((R)-2-hydroxypropyl)-1-methyl-4,5,6,7-tetrahydro-1H-imidazo[4,5-c]pyridine-2-carboxamido)-[1,1′-biphenyl]-3-yl)carbamoyl)-1-methyl-1,4,6,7-tetrahydro-5H-imidazo[4,5-c]pyridin-5-yl)methyl)cyclohexane-1-carboxylic acid] | ≤ 10
11 | CN1CCc2c(nc(C(=O)Nc3cccc(-c4cccc(NC(=O)c5nc6c(n5C)CCN(CCc5ccc(C(=O)O)cc5)C6)c4Cl)c3Cl)n2C)C1 [Example 78, 4-(2-(2-((2,2′-dichloro-3′-(1,5-dimethyl-4,5,6,7-tetrahydro-1H-imidazo[4,5-c]pyridine-2-carboxamido)-[1,1′-biphenyl]-3-yl)carbamoyl)-1-methyl-1,4,6,7-tetrahydro-5H-imidazo[4,5-c]pyridin-5-yl)ethyl)benzoic acid] | ≤ 10
12 | CN1CCc2c(nc(C(=O)Nc3cccc(-c4cccc(NC(=O)c5nc6c(n5C)CCN(C5CCC(C(=O)O)CC5)C6)c4Cl)c3Cl)n2C)C1 (stereo not drawn) [Example 79, 4-(2-((2,2′-dichloro-3′-(1,5-dimethyl-4,5,6,7-tetrahydro-1H-imidazo[4,5-c]pyridine-2-carboxamido)-[1,1′-biphenyl]-3-yl)carbamoyl)-1-methyl-1,4,6,7-tetrahydro-5H-imidazo[4,5-c]pyridin-5-yl)cyclohexane-1-carboxylic acid] | ≤ 10
13 | CN1CCc2c(nc(C(=O)Nc3cccc(-c4cccc(NC(=O)c5nc6c(n5C)CCN(C5CCC(C)(C(=O)O)CC5)C6)c4Cl)c3Cl)n2C)C1 (stereo not drawn) [Example 80, 4-(2-((2,2′-dichloro-3′-(1,5-dimethyl-4,5,6,7-tetrahydro-1H-imidazo[4,5-c]pyridine-2-carboxamido)-[1,1′-biphenyl]-3-yl)carbamoyl)-1-methyl-1,4,6,7-tetrahydro-5H-imidazo[4,5-c]pyridin-5-yl)-1-methylcyclohexane-1-carboxylic acid] | ≤ 10
14 | CN1CCc2c(nc(C(=O)Nc3cccc(-c4cccc(NC(=O)c5nc6c(n5C)CCN(CC57CCC(C(=O)O)(CC5)CC7)C6)c4Cl)c3Cl)n2C)C1 [Example 81, 4-((2-((2,2′-dichloro-3′-(1,5-dimethyl-4,5,6,7-tetrahydro-1H-imidazo[4,5-c]pyridine-2-carboxamido)-[1,1′-biphenyl]-3-yl)carbamoyl)-1-methyl-1,4,6,7-tetrahydro-5H-imidazo[4,5-c]pyridin-5-yl)methyl)bicyclo[2.2.2]octane-1-carboxylic acid] | ≤ 10
15 | CCC1(C(=O)O)CCC(N2CCc3c(nc(C(=O)Nc4cccc(-c5cccc(NC(=O)c6nc7c(n6C)CCN(C)C7)c5Cl)c4Cl)n3C)C2)CC1 (stereo not drawn) [Example 83, 4-(2-((2,2′-dichloro-3′-(1,5-dimethyl-4,5,6,7-tetrahydro-1H-imidazo[4,5-c]pyridine-2-carboxamido)-[1,1′-biphenyl]-3-yl)carbamoyl)-1-methyl-1,4,6,7-tetrahydro-5H-imidazo[4,5-c]pyridin-5-yl)-1-ethylcyclohexane-1-carboxylic acid] | ≤ 10
16 | CN1CCc2c(nc(C(=O)Nc3cccc(-c4cccc(NC(=O)c5nc6c(n5C)CCN(CC57CCC(C(=O)O)(CC5)C7)C6)c4Cl)c3Cl)n2C)C1 [Example 84, 4-((2-((2,2′-dichloro-3′-(1,5-dimethyl-4,5,6,7-tetrahydro-1H-imidazo[4,5-c]pyridine-2-carboxamido)-[1,1′-biphenyl]-3-yl)carbamoyl)-1-methyl-1,4,6,7-tetrahydro-5H-imidazo[4,5-c]pyridin-5-yl)methyl)bicyclo[2.2.1]heptane-1-carboxylic acid] | ≤ 10
17 | Cn1c(C(=O)Nc2cccc(-c3cccc(NC(=O)c4nc5c(n4C)CCN(CC[C@H]4CC[C@H](C(=O)O)CC4)C5)c3Cl)c2Cl)nc2c1CCNC2 [Example 85, trans-4-(2-(2-((2,2′-dichloro-3′-(1-methyl-4,5,6,7-tetrahydro-1H-imidazo[4,5-c]pyridine-2-carboxamido)-[1,1′-biphenyl]-3-yl)carbamoyl)-1-methyl-1,4,6,7-tetrahydro-5H-imidazo[4,5-c]pyridin-5-yl)ethyl)cyclohexane-1-carboxylic acid] | ≤ 10
18 | CCN1CCc2c(nc(C(=O)Nc3cccc(-c4cccc(NC(=O)c5nc6c(n5C)CCN(CC[C@H]5CC[C@H](C(=O)O)CC5)C6)c4Cl)c3Cl)n2C)C1 [Example 86, trans-4-(2-(2-((2,2′-dichloro-3′-(5-ethyl-1-methyl-4,5,6,7-tetrahydro-1H-imidazo[4,5-c]pyridine-2-carboxamido)-[1,1′-biphenyl]-3-yl)carbamoyl)-1-methyl-1,4,6,7-tetrahydro-5H-imidazo[4,5-c]pyridin-5-yl)ethyl)cyclohexane-1-carboxylic acid] | ≤ 10
